Results as given in BindingDB's records for doi:10.1021/jm011053+ (Institut De Chimie Pharmaceutique Albert Lespagnol, 2002).

Assay: Inhibition of 2-[125I]iodomelatonin binding to Melatonin receptor 3 (MT3) of Syrian hamster brain membrane

| Ki [nM] | Structure (SMILES) |
| --- | --- |
| 1.1 | COc1ccc2[nH]cc(CCNC(C)=O)c2c1[N+](=O)[O-] [N-(2-(5-methoxy-4-nitro-1H-indol-3-yl)ethyl)acetamide] |
| 2.8 | COc1ccc2c(c1)c(CCNC(C)=O)cn2C [N-[2-(5-Methoxy-1-methyl-1H-indol-3-yl)-ethyl]-acetamide] |
| 0.31 | COc1ccc2c(c(CCNC(C)=O)cn2C)c1[N+](=O)[O-] [N-[2-(5-Methoxy-1-methyl-4-nitro-1H-indol-3-yl)-ethyl]-acetamide] |
